Results published in PMC8911944, “Screening of Natural Products Inhibitors of SARS-CoV-2 Entry” (Molecules, 2022).
In brackets after ≈: the same amount, converted by molar mass.

Tested on: not listed separately
Test: Cytotoxicity assay, resazurin method
Assay type: cell-based
Conditions: human, HEK293T-ACE2 cells, HEK-293T ACE2 cells, unit inferred
Protocol: (§1) The maximum non-toxic concentration was assessed using the resazurin method. Briefly, HEK293T-ACE2 cells were cultured at 1 × 10^4 cells/well in a 96-well plate in the presence of different concentrations of the natural products. Vehicle (DMSO)-treated cells were used as a control and normalizer. Resazurin was added 48 h later, and after 3 h, cell viability was determined. Absorbance was measured on the MultiskanTM GO (ThermoScientific, Waltham, MA, USA) at 570 and 630 nm. The MNTC is the maximum concentration with a cytotoxicity lower than 10%.

| Compound | CC50 at 48 h |
| --- | --- |
| C=C1CC/C=C(\C)CC[C@@H]2[C@@H]1CC2(C)C [β-Caryophyllene] | 183 µg/mL (≈ 896 µM) |

Tested on: HEK293T-ACE2 cells
Test: Cytotoxicity assay, resazurin method
Assay type: cell-based
Conditions: maximum concentration with cytotoxicity lower than 10%
Protocol: as §1

| Compound | MNTC (maximum non-toxic concentration) |
| --- | --- |
| CC1=C[C@H](O)[C@H]2C[C@@H]1C2(C)C (relative stereo) [cis-Verbenol] | 250 µg/mL |
| C/C=C/[C@H]1OC(=O)C=C[C@H]1OC(C)=O [Acetylphomolactone] | 4.5 µg/mL |
| CC(=O)OC1C=CC(=O)OC1C1OC1C (centres unmarked) [Asperline] | 7.81 µg/mL |
| CC(=O)C1COC(O)C1C (centres unmarked) [Botryodiplodin] | 3 µg/mL |
| C=C1CC[C@H]2O[C@]2(C)CC[C@@H]2[C@@H]1CC2(C)C [Caryophyllene Oxide] | 31.25 µg/mL |
| C[C@H]1CC[C@@H](C(C)(C)O)CC2=C1CC[C@@H]2C [Guaiol] | 33.3 µg/mL |
| C=CC(C)(O)CCC=C(C)C (centres unmarked) [Linalool] | 125 µg/mL |
| CC(O)[C@@H]1NC(=O)c2cccn2C1=O (some centres unmarked) [Macrophominol] | 36 µg/mL |
| C=C(C)[C@H]1CC=C(C)CC1 [R-Limonene] | 31.25 µg/mL |
| C=C1CC/C=C(\C)CC[C@@H]2[C@@H]1CC2(C)C [β-Caryophyllene] | 125 µg/mL |
| Isoasperline | 7.19 µg/mL |
| S-Limonene | 31.25 µg/mL |

Tested on: pseudotyped virus carrying the vesicular stomatitis virus glycoprotein G (VSV-G)
Test: not given
Assay type: cell-based
Conditions: not given

| Compound | inhibitory activity against the entry of the VSV-G-pseudotyped virus |
| --- | --- |
| C=C1CC/C=C(\C)CC[C@@H]2[C@@H]1CC2(C)C [β-Caryophyllene] | low inhibitory activity |
